Results on six molecules are retold here after patent US20250303005A1, “PROSTATE SPECIFIC MEMBRANE ANTIGEN (PSMA) LIGANDS WITH IMPROVED RENAL CLEARANCE” (Deutsches Krebsforschungszentrum Stiftung des öffentlichen …, priority 2022, published 2025).

Assay [1] concerns PSMA+LNCaP cells. The experiment in a line: Cell surface binding and internalization of 68Ga-labeled compounds. The assay is classed as cell-based. The note with it: specific uptake by blockage with 500 μM 2-PMPA, mean ± SD (n = 3). Here is the method: (§1) PSMA+LNCaP cells (CRL-1740; ATCC; PSMA-positive) and PC-3 cells (CRL-1435; ATCC; PSMA-negative) were cultured in RPMI medium supplemented with 10% fetal calf serum and 2 mmol/L L-glutamine (all from PAA). Cells were grown at 37° C. in humidified air with 5% CO2 and were harvested using trypsin-ethylenediaminetetraacetic acid (trypsin-EDTA; 0.25% trypsin, 0.02% EDTA, Invitrogen).
(§2) For internalization experiments, 10^5 cells per well were seeded in poly-L-lysine coated 24-well cell culture plates 24 h before incubation. After washing, the cells were incubated with 30 nM of the radiolabeled DOTA-compound (radiolabeled with ^68Ga or ^177Lu) for 45 min at 37° C. (labeling was performed with 5 nmol of precursor peptide). Specific cell uptake was determined by blockage using 500 μM 2-PMPA (2-(phosphonomethyl)pentanedioic acid). Cellular uptake was terminated by washing 3 times with 1 mL of ice-cold PBS. To remove surface-bound radioactivity, cells were incubated twice with 0.5 mL glycine-HCl in PBS (50 mM, pH=2.8) for 5 min. The cells were washed with 1 mL of ice-cold PBS and lysed using 0.3 N NaOH (0.5 mL). The surface-bound and the internalized fractions were measured in a gamma counter. The cell uptake was calculated as percent of the initially added radioactivity bound to 10^5 cells [% ID/10^5 cells] (see Table 2 and Table 2a).

Assay [2] has as its target T1, PSMA (Homo sapiens, UniProt Q04609).
T1 construct: in vitro using PSMA^+-cells (LNCaP); host or cells: LNCaP
The experiment in a line: Competitive cell binding assay against 68Ga-PSMA-10 on LNCaP cells. As for the experimental part: PSMA+LNCaP cells (CRL-1740; ATCC; PSMA-positive) and PC-3 cells (CRL-1435; ATCC; PSMA-negative) were cultured in RPMI medium supplemented with 10% fetal calf serum and 2 mmol/L L-glutamine (all from PAA). Cells were grown at 37° C. in humidified air with 5% CO2 and were harvested using trypsin-ethylenediaminetetraacetic acid (trypsin-EDTA; 0.25% trypsin, 0.02% EDTA, Invitrogen). The competitive cell binding assay and internalization experiments were performed as described previously (2). For competitive cell binding, the cells (10^5 per well) were incubated with a 0.8 nM solution of ^68Ga-labeled radioligand [Glu-urea-Lys(Ahx)]2-HBED-CC (PSMA-10, precursor ordered from ABX, Radeberg, Germany) in the presence of 12 different concentrations of DOTA-compound (0-5000 nM, 100 μL/well). After incubation, the mixture was removed and the wells were washed 3 times with PBS using a multiscreen vacuum manifold (Millipore, Billerica, MA). Cell-bound radioactivity was measured using a gamma counter (Perkin Elmer 2480, Wizard, Gamma Counter). The 50% inhibitory concentration (IC50) values were calculated by fitting the data using a nonlinear regression algorithm (GraphPad Software) (see Table 2)

For assay [3], the system named is PSMA+LNCaP cells. The experiment in a line: Cell surface binding and internalization of 177Lu labeled compounds, without or with blocking by 2-PMPA. The assay is classed as cell-based. The following applies: 7.5 pmol precursor per 10^5 cells, 45 min; for Internalization Block / Surface Block: with blocking by 500 μM 2-PMPA (n = 3); for Internalization / Surface: without blocking (n = 3). As for the experimental part: as §1, §2

Assay [4] concerns prostate cancer patients. The following applies: two patients with extremely advanced and end-stage disease; cited from earlier work.
Where [5] appears, read: free ligands, LNCaP, radioligand 68Ga-PSMA-10 0.8 nM, mean ± SD (n = 3), read-out: ki free ligands.

Structures are written as SMILES. Like-named read-outs stand apart in the source and are kept apart here. Starred links: 1 amine or outer side, 2 acyl side, 3 side chain; linkers in the order of their positions; H or OH if unused. Non-standard residues stand in square brackets, D forms with d. Residues, ends and D or L forms follow the SMILES beside them. ξ: configuration not given here. *: point of attachment. DOTA = O=C(O)CN1CCN(CC(=O)O)CCN(CC(=O)*)CCN(CC(=O)O)CC1; EuK = O=C(O)CC[C@H](NC(=O)N[C@@H](CCCCN*)C(=O)O)C(=O)O; X2 = O=C(O)CCC(NC(=O)NC(CCCCN*)C(=O)O)C(=O)O; 2Nal = N[C@@H](Cc1ccc2ccccc2c1)C(=O)O; ξ2Nal = NC(Cc1ccc2ccccc2c1)C(=O)O; Trx = NC[C@H]1CC[C@H](C(=O)O)CC1; X1 = O=C(C1CCC(CN[*:1])CC1)[*:2]; Sar = CNCC(=O)O

T1 sequence (Q04609 whole entry): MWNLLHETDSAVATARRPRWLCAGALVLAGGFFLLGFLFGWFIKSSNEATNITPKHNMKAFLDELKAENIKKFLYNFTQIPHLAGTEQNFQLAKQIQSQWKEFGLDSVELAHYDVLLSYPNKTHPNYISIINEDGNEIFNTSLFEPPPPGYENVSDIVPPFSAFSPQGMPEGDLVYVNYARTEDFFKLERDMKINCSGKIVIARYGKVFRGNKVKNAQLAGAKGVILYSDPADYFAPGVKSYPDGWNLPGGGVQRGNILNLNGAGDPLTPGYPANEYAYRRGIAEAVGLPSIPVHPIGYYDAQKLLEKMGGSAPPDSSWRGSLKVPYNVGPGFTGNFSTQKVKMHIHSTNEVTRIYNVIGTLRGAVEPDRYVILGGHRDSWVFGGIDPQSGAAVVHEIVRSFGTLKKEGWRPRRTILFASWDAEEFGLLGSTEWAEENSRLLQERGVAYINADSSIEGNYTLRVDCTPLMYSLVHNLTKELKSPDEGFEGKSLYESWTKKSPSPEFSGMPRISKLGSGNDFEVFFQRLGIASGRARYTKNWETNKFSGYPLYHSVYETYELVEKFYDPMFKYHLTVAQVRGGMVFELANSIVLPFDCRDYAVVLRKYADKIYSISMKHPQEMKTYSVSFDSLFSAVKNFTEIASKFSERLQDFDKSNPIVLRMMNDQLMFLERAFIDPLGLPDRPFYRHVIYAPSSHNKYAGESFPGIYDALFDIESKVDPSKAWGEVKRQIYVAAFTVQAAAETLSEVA

For the molecule `O=C(O)CC[C@H](NC(=O)N[C@@H](CCCCNC(=O)[C@H](Cc1ccc2ccccc2c1)NC(=O)[C@H]1CC[C@H](CNC(=O)CN2CCN(CC(=O)O)CCN(CC(=O)O)CCN(CC(=O)O)CC2)CC1)C(=O)O)C(=O)O` [PSMA-617, reference compound], in assay [1], the “Specifically cell surface bound” value was 3.47 ± 1.53 % AR/10^5 cells and the Specifically internalized is reported as 2.55 ± 1.97 % AR/10^5 cells.

`CN(CC(=O)NCC1CCC(C(=O)NC(Cc2ccc3ccccc3c2)C(=O)NCCCCC(NC(=O)NC(CCC(=O)O)C(=O)O)C(=O)O)CC1)C(=O)CN(C)C(=O)CN(C)C(=O)CN(C)C(=O)CN(C)C(=O)CN(C)C(=O)CN(C)C(=O)CN(C)C(=O)CN(C)C(=O)CN(C)C(=O)CN1CCN(CC(=O)O)CCN(CC(=O)O)CCN(CC(=O)O)CC1` (stereo not shown) [DOTA-Sar10-Chx-2-NaI-Lys-urea-Glu]: in assay [2] (setting [5]), the Ki was found to be 96.8 ± 96.4 nM. In assay [1], the “Specifically cell surface bound” value worked out at 3.66 ± 1.31 % AR/10^5 cells and the Specifically internalized was 2.31 ± 0.90 % AR/10^5 cells. For the same molecule, in assay [3], the “Internalization Block” value amounted to 0.00 ± 0.00 % AR/10^5 cells, the “Surface Block” value is given as 0.03 ± 0.02 % AR/10^5 cells, the Internalization is recorded as 0.10 ± 0.06 % AR/10^5 cells and the Surface came out at 0.45 ± 0.08 % AR/10^5 cells.

For `CN(CC(=O)NCC1CCC(C(=O)NC(Cc2ccc3ccccc3c2)C(=O)NCCCCC(NC(=O)NC(CCC(=O)O)C(=O)O)C(=O)O)CC1)C(=O)CN(C)C(=O)CN(C)C(=O)CN(C)C(=O)CN(C)C(=O)CN(C)C(=O)CN(C)C(=O)CN(C)C(=O)CN(C)C(=O)CN(C)C(=O)CN(C)C(=O)CN(C)C(=O)CN(C)C(=O)CN(C)C(=O)CN(C)C(=O)CN1CCN(CC(=O)O)CCN(CC(=O)O)CCN(CC(=O)O)CC1` (stereo not shown) [DOTA-Sar15-Chx-2-NaI-Lys-urea-Glu], the inhibition constant Ki in assay [2] (setting [5]) was 74.7 ± 36 nM. For the same molecule, in assay [1], the “Specifically cell surface bound” value was found to be 3.71 ± 1.55 % AR/10^5 cells and the Specifically internalized stood at 2.03 ± 1.71 % AR/10^5 cells. Besides, in assay [3], the “Internalization Block” value amounted to 0.00 ± 0.00 % AR/10^5 cells, the “Surface Block” value is recorded as 0.02 ± 0.01 % AR/10^5 cells, the Internalization came out at 0.11 ± 0.05 % AR/10^5 cells and the Surface is recorded as 0.52 ± 0.03 % AR/10^5 cells.

`CN(CC(=O)NCC1CCC(C(=O)NC(Cc2ccc3ccccc3c2)C(=O)NCCCCC(NC(=O)NC(CCC(=O)O)C(=O)O)C(=O)O)CC1)C(=O)CN(C)C(=O)CN(C)C(=O)CN(C)C(=O)CN(C)C(=O)CN1CCN(CC(=O)O)CCN(CC(=O)O)CCN(CC(=O)O)CC1` (stereo not shown) [DOTA-Sar5-Chx-2-NaI-Lys-urea-Glu] ({DOTA}-[Sar][Sar][Sar][Sar][Sar][X1][ξ2Nal]-X2): the inhibition constant Ki in assay [2] (setting [5]) came to 54.3 ± 33.6 nM. Besides, in assay [1], the “Specifically cell surface bound” value was determined as 2.79 ± 0.50 % AR/10^5 cells and the Specifically internalized worked out at 1.99 ± 1.15 % AR/10^5 cells. In assay [3], the “Internalization Block” value came to 0.00 ± 0.00 % AR/10^5 cells, the “Surface Block” value was 0.02 ± 0.01 % AR/10^5 cells, the Internalization amounted to 0.10 ± 0.06 % AR/10^5 cells and the Surface is recorded as 0.47 ± 0.12 % AR/10^5 cells.

In assay [2], `CN(CC(=O)NC[C@H]1CC[C@H](C(=O)N[C@@H](Cc2ccc3ccccc3c2)C(=O)NCCCC[C@H](NC(=O)N[C@@H](CCC(=O)O)C(=O)O)C(=O)O)CC1)C(=O)CN(C)C(=O)CN(C)C(=O)CN1CCN(CC(=O)O)CCN(CC(=O)O)CCN(CC(=O)O)CC1` [DOTA-Sar3-Chx-2-NaI-Lys-urea-Glu] ({DOTA}-[Sar][Sar][Sar][Trx][2Nal]-EuK) displayed an inhibitory constant (Ki) of 29.7 ± 24.2 nM. Further, in assay [1], the “Specifically cell surface bound” value came out at 4.42 ± 2.05 % AR/10^5 cells and the Specifically internalized was determined as 2.20 ± 0.98 % AR/10^5 cells. In assay [3], the “Internalization Block” value was 0.01 ± 0.01 % AR/10^5 cells, the “Surface Block” value was 0.03 ± 0.01 % AR/10^5 cells, the Internalization is given as 0.13 ± 0.08 % AR/10^5 cells and the Surface was found to be 0.65 ± 0.15 % AR/10^5 cells.

For the molecule `O=C([O-])CC[C@H](NC(=O)N[C@@H](CCCCNC(=O)[C@H](Cc1ccc2ccccc2c1)NC(=O)C1CCC(CNC(=O)CN2CCN(CC(=O)[O-])CCN(CC(=O)[O-])CCN(CC(=O)[O-])CC2)CC1)C(=O)[O-])C(=O)[O-].[225Ac].[H+].[H+].[H+]` (stereo partly shown) [225Ac-PSMA-617], in assay [4], the Response in patients result is on record as “complete remission”.

The Ki is a dissociation constant, usually derived from enzyme kinetics or from competition with a known ligand.
